Consider one substance from patent US20130280204A1 (priority 2007, published 2013).

This assay deals with Wuhan E119V. It counts as cell-based, influenza A virus H3N2. The following applies: read-out: IC50 (nM zanamivir) A/Wuhan/359/95 (second line).

As for “3-Acetamido-2-(1-(((4-(aminomethyl)phenyl)carbamoyl)oxy)-2,3-dihydroxypropyl)-4-guanidino-3,4-dihydro-2H-pyran-6-carboxylic acid [compound 4]”, the IC50 is 51 ± 5 nM.
